Ends that are not written are not given here.
Key:
Format in all cases: cell-based
Vibrio aestuarianus = settings: 16 h
Protocol: (§1) The antibacterial activity of peptides β-Pte20, β-Pte17, β-Pte13 and β-Pte10 from pteroicidin B and γ-Pte20, γ-Pte17, γ-Pte13 and γ-Pte10 from pteroicidin C was evaluated on several bacteria as presented in Table 3. All peptides were solubilized in sterilized water. The minimum inhibitory concentrations (MICs) were determined according to the liquid growth inhibition test following the protocol established by Hetru and Bulet and used for the study of α-pteroicidins. Briefly, 10 μL of peptide solution were added to 100 μL of bacterial suspension at a starting OD600 of 0.001 (~10^5 to 10^6 CFU/mL according to strain) and incubated in 96-well microplates. Bacterial growth was assessed by optical density measurement at 595 nm after 16 h of incubation. All the tests were performed three times, and each peptide concentration between 0.1 and 50 µM was tested in triplicate. MICs were expressed in µM as an [a]–[b] concentration interval where [a] was the last concentration with bacterial growth and [b] was the first concentration with 100% bacterial growth inhibition. MBCs (minimal bactericidal concentrations) were expressed in µM as an [a]–[b] concentration interval where [a] was the last concentration with bacterial growth and [b] was the first concentration that killed 100% of the bacteria, determined after the plating on agar plates.

Escherichia coli = settings: 16 h
Protocol: as §1

Vibrio vulnificus = settings: 16 h
Protocol: as §1

Vibrio splendidus = settings: 16 h
Protocol: as §1

Listeria monocytogenes = settings: 16 h
Protocol: as §1

Aeromonas salmonicida = settings: 16 h
Protocol: as §1

Staphylococcus aureus = settings: 16 h
Protocol: as §1

Salmonella typhimurium = settings: 16 h; for MIC: murium
Protocol: as §1

Enterococcus faecalis = settings: 16 h
Protocol: as §1

human red blood cells = settings: 200 µM
Protocol: The hemolytic activity of peptides β-Pte20, β-Pte17, β-Pte13 and β-Pte10 from pteroicidin B and γ-Pte20, γ-Pte17, γ-Pte13 and γ-Pte10 from pteroicidin C was evaluated on human red blood cells (RBCs) following the protocol previously described in [96] and used for α-Pte in a previous study. RBCs were obtained from nine blood samples from French blood donors thanks to the support of the Etablissement Français du Sang (EFS). RBCs were rinsed twice in PBS and then diluted to obtain a 1% erythrocyte solution (~5 × 10^6 cells determined using a Scepter™ 2.0 cell counter). Ninety μL of erythrocyte solution were incubated with 90 μL of peptide solution at concentrations ranging from 5 to 200 μM, for one hour at 37 °C without shaking. The percentage of hemolysis was determined by optical density measurement at 415 nm. The experiment was performed in triplicate. The 0% hemolysis and 100% hemolysis controls were determined in PBS and 1% Triton X-100, respectively.

| Sequence | MBC (Vibrio aestuarianus) | MIC (Vibrio aestuarianus) | MBC (Escherichia coli) | MIC (Escherichia coli) | MBC (Vibrio vulnificus) | MIC (Vibrio vulnificus) | MBC (Vibrio splendidus) | MIC (Vibrio splendidus) | MBC (Listeria monocytogenes) | MIC (Listeria monocytogenes) | MBC (Aeromonas salmonicida) | MIC (Aeromonas salmonicida) | MBC (Staphylococcus aureus) | MIC (Staphylococcus aureus) | MBC (Salmonella typhimurium) | MIC (Salmonella typhimurium) | MIC (Enterococcus faecalis) | hemolysis (human red blood cells) |
| --- | --- | --- | --- | --- | --- | --- | --- | --- | --- | --- | --- | --- | --- | --- | --- | --- | --- | --- |
| FFKRLKNAFKSARQAWR [β-Pte17] | 10 to 25 µM | 10 to 25 µM | 1 to 5 µM | 1 to 5 µM | 10 to 25 µM | 10 to 25 µM | 10 to 25 µM | 10 to 25 µM | 25 to 50 µM | 5 to 10 µM | 5 to 10 µM | 5 to 10 µM | 25 to 50 µM | 10 to 25 µM | 10 to 25 µM | 10 to 25 µM |  |  |
| FFKRLKNAFKSARQAWRDYK [β-Pte20] | 5 to 10 µM | 1 to 5 µM | 5 to 10 µM | 1 to 5 µM | 5 to 10 µM | 5 to 10 µM | 5 to 10 µM | 1 to 5 µM | 5 to 10 µM | 1 to 5 µM | 1 to 5 µM | 1 to 5 µM | 10 to 25 µM | 1 to 5 µM | 10 to 25 µM | 10 to 25 µM |  |  |
| FFRHLKSLWK [γ-Pte10] |  |  | 25 to 50 µM | 25 to 50 µM |  |  |  |  |  |  |  | 25 to 50 µM |  |  |  |  |  |  |
| FFRHLKSLWKGAK [γ-Pte13] |  |  | 10 to 25 µM | 10 to 25 µM |  |  |  |  |  |  |  | 25 to 50 µM |  |  |  |  |  |  |
| FFRHLKSLWKGAKAAFR [γ-Pte17] | 5 to 10 µM | 5 to 10 µM | 10 to 25 µM | 1 to 5 µM | 10 to 25 µM | 10 to 25 µM | 10 to 25 µM | 10 to 25 µM | 5 to 10 µM | 1 to 5 µM | 1 to 5 µM | 1 to 5 µM | 1 to 5 µM | 1 to 5 µM | 5 to 10 µM | 5 to 10 µM | 1 to 5 µM | 43% |
| FFRHLKSLWKGAKAAFRGAR [γ-Pte20] | 10 to 25 µM | 5 to 10 µM | 1 to 5 µM | 1 to 5 µM | 10 to 25 µM | 10 to 25 µM | 5 to 10 µM | 5 to 10 µM | 5 to 10 µM | 1 to 5 µM | 1 to 5 µM | 1 to 5 µM | 1 to 5 µM | 1 to 5 µM | 5 to 10 µM | 5 to 10 µM | 1 to 5 µM | 19% |

Source: article PMC8468504, “Marine Transcriptomics Analysis for the Identification of New Antimicrobial Peptides” (Marine Drugs, 2021)
